Laboratory results: US7723295B2, “Peptides and compounds that bind to a receptor” (Ortho-McNeil Pharmaceutical, Inc., priority 2003, dated 2010)

Legend:
[1] = system: platelet counts; assay: Phase I pharmacodynamics, elevation in platelet counts; format: in vivo, human; conditions: for n (>1.5×), subjects with platelet increase / n (>2×), subjects with platelet increase / n (>3×), subjects with platelet increase / n (>4×), subjects with platelet increase: N=6
[2] = target: T1, human TPO receptor (Homo sapiens, UniProt P40238); assay: relative luminescent units assay, murine cells expressing human TPO receptor and fos-promoter luciferase reporter; format: cell-based; conditions: FIG. 1; three batches of TPO Compound No. 1 vs one batch of prior art peptide compound
T1 construct: expressed in transfected cells
T1 sequence (P40238 26-635): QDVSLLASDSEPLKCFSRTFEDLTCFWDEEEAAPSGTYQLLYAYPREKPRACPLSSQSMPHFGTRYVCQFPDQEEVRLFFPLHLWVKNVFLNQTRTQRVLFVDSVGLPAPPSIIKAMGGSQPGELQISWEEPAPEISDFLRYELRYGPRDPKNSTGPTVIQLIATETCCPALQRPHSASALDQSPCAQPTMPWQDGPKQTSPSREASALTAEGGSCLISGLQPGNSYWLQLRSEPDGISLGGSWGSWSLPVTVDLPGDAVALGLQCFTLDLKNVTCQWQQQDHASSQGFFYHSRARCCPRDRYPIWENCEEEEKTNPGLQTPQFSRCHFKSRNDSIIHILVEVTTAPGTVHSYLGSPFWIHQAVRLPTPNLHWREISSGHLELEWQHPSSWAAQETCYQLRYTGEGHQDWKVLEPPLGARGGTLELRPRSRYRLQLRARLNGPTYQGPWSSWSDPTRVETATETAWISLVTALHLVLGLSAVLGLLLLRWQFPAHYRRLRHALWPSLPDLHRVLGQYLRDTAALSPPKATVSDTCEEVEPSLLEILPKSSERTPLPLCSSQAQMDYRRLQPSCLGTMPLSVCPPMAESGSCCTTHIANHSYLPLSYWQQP
Description: The assay employs murine cells engineered to stably express the human TPO receptor and a luciferase reporter construct driven by the fos promoter.

**Q.** For “(H-IEGPTLRQ(2-Nal)LAAR(Sar))2K-NH2 [TPO Compound No. 1]”, which “Pltmax, first value (mean peak platelet count)” value (“Pltmax, first value” below) ([1]; 0.375 μg/kg single i.v.) is on record?
**A.** 315 10^9/L

**Q.** What about the “Pltmax, range in brackets” value ([1]; 0.375 μg/kg single i.v.) of the same substance?
**A.** (214-482) 10^9/L

**Q.** And the “Pltmax, second value after the slash (footnote not given)” value ([1]; 0.375 μg/kg single i.v.)?
**A.** 309 10^9/L

**Q.** And the “Pltmax/Plt0, first value (mean)” value ([1]; 0.375 μg/kg single i.v.)?
**A.** 1.42/1.42

**Q.** What about the “Pltmax/Plt0, range in brackets” value ([1]; 0.375 μg/kg single i.v.) of the same substance?
**A.** (1.08-1.81)

**Q.** And the “Pltmax/Plt0, second value after the slash (footnote not given)” value (“Pltmax/Plt0 … (footnote not given)” for short) ([1]; 0.375 μg/kg single i.v.)?
**A.** 1.42/1.42

**Q.** What about the “n (>1.5×), subjects with platelet increase” value ([1]; 0.375 μg/kg single i.v.) of the same substance?
**A.** 3

**Q.** What about the “n (>2×), subjects with platelet increase” value ([1]; 0.375 μg/kg single i.v.) of the same substance?
**A.** 0

**Q.** What about the “n (>3×), subjects with platelet increase” value ([1]; 0.375 μg/kg single i.v.) of the same substance?
**A.** 0

**Q.** What about the “n (>4×), subjects with platelet increase” value ([1]; 0.375 μg/kg single i.v.) of the same substance?
**A.** 0

**Q.** What about the “Pltmax, first value” value ([1]; 0.75 μg/kg single i.v.) of the same substance?
**A.** 347 10^9/L

**Q.** And the “Pltmax, range in brackets” value ([1]; 0.75 μg/kg single i.v.)?
**A.** (232-495) 10^9/L

**Q.** And the “Pltmax, second value after the slash (footnote not given)” value ([1]; 0.75 μg/kg single i.v.)?
**A.** 335 10^9/L

**Q.** And the “Pltmax/Plt0, first value (mean)” value ([1]; 0.75 μg/kg single i.v.)?
**A.** 1.63/1.63

**Q.** What about the “Pltmax/Plt0, range in brackets” value ([1]; 0.75 μg/kg single i.v.) of the same substance?
**A.** (1.15-2.12)

**Q.** What about the “Pltmax/Plt0 … (footnote not given)” value ([1]; 0.75 μg/kg single i.v.) of the same substance?
**A.** 1.63/1.63

**Q.** What about the “n (>1.5×), subjects with platelet increase” value ([1]; 0.75 μg/kg single i.v.) of the same substance?
**A.** 3

**Q.** What about the “n (>2×), subjects with platelet increase” value ([1]; 0.75 μg/kg single i.v.) of the same substance?
**A.** 1

**Q.** What about the “n (>3×), subjects with platelet increase” value ([1]; 0.75 μg/kg single i.v.) of the same substance?
**A.** 0

**Q.** What about the “n (>4×), subjects with platelet increase” value ([1]; 0.75 μg/kg single i.v.) of the same substance?
**A.** 0

**Q.** What about the “Pltmax, first value” value ([1]; 1.5 μg/kg single i.v.) of the same substance?
**A.** 430 10^9/L

**Q.** And the “Pltmax, range in brackets” value ([1]; 1.5 μg/kg single i.v.)?
**A.** (238-597) 10^9/L

**Q.** What about the “Pltmax, second value after the slash (footnote not given)” value ([1]; 1.5 μg/kg single i.v.) of the same substance?
**A.** 458 10^9/L

**Q.** And the “Pltmax/Plt0, first value (mean)” value ([1]; 1.5 μg/kg single i.v.)?
**A.** 1.91

**Q.** And the “Pltmax/Plt0, range in brackets” value ([1]; 1.5 μg/kg single i.v.)?
**A.** (1.01-2.59)

**Q.** What about the “Pltmax/Plt0 … (footnote not given)” value ([1]; 1.5 μg/kg single i.v.) of the same substance?
**A.** 2.13

**Q.** And the “n (>1.5×), subjects with platelet increase” value ([1]; 1.5 μg/kg single i.v.)?
**A.** 4

**Q.** What about the “n (>2×), subjects with platelet increase” value ([1]; 1.5 μg/kg single i.v.) of the same substance?
**A.** 3

**Q.** And the “n (>3×), subjects with platelet increase” value ([1]; 1.5 μg/kg single i.v.)?
**A.** 0

**Q.** And the “n (>4×), subjects with platelet increase” value ([1]; 1.5 μg/kg single i.v.)?
**A.** 0

**Q.** What about the “Pltmax, first value” value ([1]; 2.25 μg/kg single i.v.) of the same substance?
**A.** 454 10^9/L

**Q.** And the “Pltmax, range in brackets” value ([1]; 2.25 μg/kg single i.v.)?
**A.** (254-576) 10^9/L

**Q.** What about the “Pltmax, second value after the slash (footnote not given)” value ([1]; 2.25 μg/kg single i.v.) of the same substance?
**A.** 500 10^9/L

**Q.** And the “Pltmax/Plt0, first value (mean)” value ([1]; 2.25 μg/kg single i.v.)?
**A.** 2.15

**Q.** And the “Pltmax/Plt0, range in brackets” value ([1]; 2.25 μg/kg single i.v.)?
**A.** (1.28-2.98)

**Q.** What about the “Pltmax/Plt0 … (footnote not given)” value ([1]; 2.25 μg/kg single i.v.) of the same substance?
**A.** 2.33

**Q.** What about the “n (>1.5×), subjects with platelet increase” value ([1]; 2.25 μg/kg single i.v.) of the same substance?
**A.** 4

**Q.** And the “n (>2×), subjects with platelet increase” value ([1]; 2.25 μg/kg single i.v.)?
**A.** 4

**Q.** What about the “n (>3×), subjects with platelet increase” value ([1]; 2.25 μg/kg single i.v.) of the same substance?
**A.** 0

**Q.** What about the “n (>4×), subjects with platelet increase” value ([1]; 2.25 μg/kg single i.v.) of the same substance?
**A.** 0

**Q.** And the “Pltmax, first value” value ([1]; 3.0 μg/kg single i.v.)?
**A.** 685 10^9/L

**Q.** What about the “Pltmax, range in brackets” value ([1]; 3.0 μg/kg single i.v.) of the same substance?
**A.** (188-979) 10^9/L

**Q.** What about the “Pltmax, second value after the slash (footnote not given)” value ([1]; 3.0 μg/kg single i.v.) of the same substance?
**A.** 750 10^9/L

**Q.** And the “Pltmax/Plt0, first value (mean)” value ([1]; 3.0 μg/kg single i.v.)?
**A.** 3.21

**Q.** And the “Pltmax/Plt0, range in brackets” value ([1]; 3.0 μg/kg single i.v.)?
**A.** (1.25-4.52)

**Q.** And the “Pltmax/Plt0 … (footnote not given)” value ([1]; 3.0 μg/kg single i.v.)?
**A.** 3.50

**Q.** What about the “n (>1.5×), subjects with platelet increase” value ([1]; 3.0 μg/kg single i.v.) of the same substance?
**A.** 5

**Q.** And the “n (>2×), subjects with platelet increase” value ([1]; 3.0 μg/kg single i.v.)?
**A.** 5

**Q.** What about the “n (>3×), subjects with platelet increase” value ([1]; 3.0 μg/kg single i.v.) of the same substance?
**A.** 4

**Q.** What about the “n (>4×), subjects with platelet increase” value ([1]; 3.0 μg/kg single i.v.) of the same substance?
**A.** 1

**Q.** And the “activity (relative luminescent units), compared between compounds” value [2]?
**A.** similar
